How the values were obtained:
[1] = molecular target: T1, Avi-KRAS WT (1-169) GppNHp/RAF1 RBD-3×FLAG (52-151) (Homo sapiens, UniProt P01116); assay: Disrupting RAS-effector binding HTRF assay, Raf1 RBD-KRAS WT-GppNHp; conditions: PPI HTRF, 50 nM Avi-KRAS WT GppNHp, compound titration 30-0.0045 μM; read-out: Raf1 RBD-KRAS WT-GppNHp disruption
T1 construct: 50 nM Avi-KRAS WT (1-169) GppNHp/RAF1 RBD-3×FLAG (52-151)
Procedure: (§1) A protein:protein interaction (PPI) Homogeneous Time Resolved Fluorescence (HTRF) assay was used to determine the effectiveness of compounds of the present disclosure in disrupting KRAS protein and effector RAF1 binding.
(§2) The HTRF assay used the following reagents and proteins: (i) 50 nM Avi-KRAS G12D (1-169) GppNHp/RAF1 RBD-3×FLAG (52-151); (ii) 50 nM Avi-KRAS G12R (1-169) GppNHp/RAF1 RBD-3×FLAG (52-151); (iii) 50 nM Avi-KRAS G12V (1-169) GppNHp/RAF1 RBD-3×FLAG (52-151), (iv) 50 nM Avi-KRAS WT (1-169) GppNHp/RAF1 RBD-3×FLAG (52-151); and (v) 75 nM Avi-RAF1 RBD-3×FLAG. The assay buffer included: 50 mM Tris pH 7.5, 100 mM NaCl, 5 mM MgCl2, 0.1% BSA, […], 10% DMSO. The bead buffer included: 50 mM Tris pH 7.5, 0.01% o Tween 20. Assay volume of 20 μL was used in a 384 well plate-low volume format. Compound titration: 30-0.0045 μM, 3× dilution series.
(§3) The HTRF assay employed the following protocol:
(§4) Compounds were dispensed in assay plate (384-well, Grenier Bione #784075) using Echo (model 555) with dose response settings: 200 nL final volume, titration from 30 μM as a 10-point dilution series. Protein mix was prepared in assay buffer, and dispensed on plates, 10 μL per well, then incubated for 1 h at room temperature, with 700 rpm shaking. Reagents mix was prepared and dispensed on plates, 10 μL per well, then incubated for 1 h at room temperature, with 700 rpm shaking.
(§5) Plates were analyzed on an Envision plate reader using the following setting: Excitation 320 nm, Bandwidth 75 nM; Emission 615 nm, Bandwidth 85 nM, Gain 100%, Flashes 100, Lag 60 μs. Data were reported as percentage of activity, with DMSO as 100%. Data were plotted and analyzed using Prism 8.
(§6) The biochemical Raf1-KRAS G12D/G12R/G12V/WT-GppNHP disruption assay IC50 of selected compounds described herein are shown in Table 4.

[2] = molecular target: T2, Avi-KRAS G12D (1-169) GppNHp/RAF1 RBD-3×FLAG (52-151) (Homo sapiens, UniProt P01116, G12D); assay: Disrupting RAS-effector binding HTRF assay, Raf1 RBD-KRAS G12D-GppNHp; conditions: PPI HTRF, 50 nM Avi-KRAS G12D GppNHp, compound titration 30-0.0045 μM; read-out: Raf1 RBD-KRAS G12D-GppNHp disruption
T2 construct: 50 nM Avi-KRAS G12D (1-169) GppNHp/RAF1 RBD-3×FLAG (52-151)
T2 sequence (P01116 1-169 isoform P01116-2 G12D limits assumed): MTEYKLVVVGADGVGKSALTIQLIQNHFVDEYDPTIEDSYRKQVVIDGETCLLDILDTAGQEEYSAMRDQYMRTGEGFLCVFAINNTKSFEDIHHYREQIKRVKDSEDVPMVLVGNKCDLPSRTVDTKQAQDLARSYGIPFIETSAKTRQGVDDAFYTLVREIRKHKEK
Procedure: as §1, §2, §3, §4, §5, §6

[3] = molecular target: T3, Avi-KRAS G12R (1-169) GppNHp/RAF1 RBD-3×FLAG (52-151) (Homo sapiens, UniProt P01116, G12R); assay: Disrupting RAS-effector binding HTRF assay, Raf1 RBD-KRAS G12R-GppNHp; conditions: PPI HTRF, 50 nM Avi-KRAS G12R GppNHp, compound titration 30-0.0045 μM; read-out: Raf1 RBD-KRAS G12R-GppNHp disruption
T3 construct: 50 nM Avi-KRAS G12R (1-169) GppNHp/RAF1 RBD-3×FLAG (52-151)
T3 sequence (P01116 1-169 isoform P01116-2 G12R limits assumed): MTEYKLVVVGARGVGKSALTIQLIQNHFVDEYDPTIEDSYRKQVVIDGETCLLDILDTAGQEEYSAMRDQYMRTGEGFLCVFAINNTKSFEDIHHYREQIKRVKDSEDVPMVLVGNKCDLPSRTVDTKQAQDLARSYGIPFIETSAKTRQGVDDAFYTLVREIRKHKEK
Procedure: as §1, §2, §3, §4, §5, §6

[4] = system: KRAS G12V protein/effector signaling in SW620 cells; assay: Cell-based pERK HTRF assay in SW620 cell; conditions: Homo sapiens, SW-620, 1 h incubation
Procedure: pERK assay (Perkin Elmer) was used to determine the effectiveness of compounds in disrupting KRAS G12V protein/effector signaling in cells.
On Day 1, cells (SW620) were seeded into 96-well plates at 3×10^4 cells/well in 80 μL complete growth media (DMEM, 10% FBS).
(§7) On Day 2, cells were treated with compounds at 0.25% DMSO. The source plate was created with compounds diluted in media at 5-fold the final assay concentration. The compounds were run in a 9-point concentration curve starting at 10 μM, with a half-log dilution between concentrations. 20 μL was transferred onto the cell plates (final volume in wells was 100 μL). Plates were harvested after 1 h incubation by aspirating media and adding kit-supplied 1× supplemented lysis buffer to all wells (50 μL per well). Plates were then placed on a plate shaker and incubated at 850 rpm for an additional 30 min.
Antibody mixture solution was prepared by diluting aliquoted d2 and Eu Cryptate antibodies 1:20 in kit supplied detection buffer, and mixing the diluted antibodies solutions (1:1 v:v). Four μL of this solution was then added to a 384-well detection plate (Perkin Elmer; 6008230).
(§8) Samples were homogenized by pipetting up and down and then transferred (16 μL of cell lysates) from the 96-well cell culture plate to two wells of the HTRF 384-well detection plate containing the antibody solution. Plates were centrifuged (524 g for 1 min) and allowed to incubate between 4 and 24 h at room temperature. Maximum signal was reached after 4 h incubation time and remained stable over a period of 24 hours. Therefore, readings could be made between 4 and 24 h of incubation. Plates were centrifuged again (524 g for 1 min), then analyzed on the EnVision plate reader using the following settings: Excitation 320 nm, Bandwidth 75 nm; Emission 615 nm, Bandwidth 85 nm; Gain 100%; Flashes 100; Lag 60 μs.

[5] = system: KRAS G12D protein/effector signaling in GP2d cells; assay: Cell-based pERK HTRF assay in GP2d cell; conditions: 1 h, 60 min incubation
Procedure: A pERK assay (Perkin Elmer) was used to determine the effectiveness of compounds in disrupting KRAS G12D protein/effector signaling in cells.
On Day 1, cells (GP2d) were seeded into 96-well plates at 3×10^4 cells/well in 80 μL complete growth media (DMEM, 10% FBS).
as §7, with “[…],” for “10 μM,”, “60 min” for “1 h”
Antibody mixture solution was prepared by diluting aliquoted d2 and Eu Cryptate antibodies 1:20 in kit supplied detection buffer, and mixing the diluted antibodies solutions (1:1 v:v). 4 μL of this solution was then added to a 384-well detection plate (Perkin Elmer; 6008230).
as §8

[6] = molecular target: T4, Avi-KRAS G12V (1-169) GppNHp/RAF1 RBD-3×FLAG (52-151) (Homo sapiens, UniProt P01116, G12V); assay: Disrupting RAS-effector binding HTRF assay, Raf1 RBD-KRAS G12V-GppNHp; conditions: PPI HTRF, 50 nM Avi-KRAS G12V GppNHp, compound titration 30-0.0045 μM; read-out: Raf1 RBD-KRAS G12V-GppNHp disruption
T4 construct: 50 nM Avi-KRAS G12V (1-169) GppNHp/RAF1 RBD-3×FLAG (52-151)
T4 sequence (P01116 1-169 isoform P01116-2 G12V limits assumed): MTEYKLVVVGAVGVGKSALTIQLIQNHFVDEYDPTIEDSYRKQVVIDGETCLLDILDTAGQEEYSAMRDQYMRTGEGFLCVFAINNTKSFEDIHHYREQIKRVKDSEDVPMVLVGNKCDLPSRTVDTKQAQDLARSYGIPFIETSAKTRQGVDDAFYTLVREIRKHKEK
Procedure: as §1, §2, §3, §4, §5, §6

T1 sequence (P01116 1-169 isoform P01116-2 limits assumed): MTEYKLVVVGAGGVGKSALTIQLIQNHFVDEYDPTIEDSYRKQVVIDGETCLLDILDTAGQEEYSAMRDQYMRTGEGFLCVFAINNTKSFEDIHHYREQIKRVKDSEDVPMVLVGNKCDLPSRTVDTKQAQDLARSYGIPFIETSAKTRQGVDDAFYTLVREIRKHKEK

SMILES | IC50 [1] | IC50 [2] | IC50 [3] | IC50 [4] | IC50 [5] | IC50 [6]
N#Cc1c(N)sc2c(F)ccc(-c3c(C(F)(F)F)cc4c(N5CC6CCC(C5)N6)nc(OC[C@H](O)CO)nc4c3F)c12 [Compound 29] | 1000 to 10000 nM | 100 to 1000 nM | 1 to 10 µM | 1 to 10 µM | ≤ 100 nM | 1 to 10 µM
CN1C[C@@H](COc2nc(N3CC4CCC(C3)N4)c3cc(C(F)(F)F)c(-c4ccc(F)c5sc(N)c(C#N)c45)c(F)c3n2)CC1=O [Compound 56] | 100 to 1000 nM | 100 to 1000 nM | 1 to 10 µM | > 10 µM | ≤ 100 nM | 1 to 10 µM
CN(c1nc(OCC2CCOCC2)nc2c(F)c(-c3ccc(F)c4sc(N)c(C#N)c34)c(C(F)(F)F)cc12)C1CCNCC1 [Compound 61] | > 10000 nM | 1000 to 10000 nM | > 10 µM | > 10 µM | > 1000 nM | > 10 µM
N#Cc1c(N)sc2c(F)ccc(-c3c(C(F)(F)F)cc4c(N5CC6CCC(C5)N6)nc(OCCC5CCOCC5)nc4c3F)c12 [Compound 46] | 1000 to 10000 nM | 100 to 1000 nM | > 10 µM | > 10 µM | ≤ 100 nM | > 10 µM
COc1c(Cl)c(-c2ccc(F)c3sc(N)c(C#N)c23)c(F)c2ncnc(N3CC4CCC(C3)N4)c12 [Compound 35] | > 10000 nM | > 10000 nM | > 10 µM | > 10 µM | 100 to 1000 nM | > 10 µM
N#Cc1c(N)sc2c(F)ccc(-c3c(C(F)(F)F)cc4c(N5CC6CCC(C5)N6)nc(OCC(CO)CO)nc4c3F)c12 [Compound 30] | 100 to 1000 nM | 100 to 1000 nM | 1 to 10 µM | > 10 µM | ≤ 100 nM | 1 to 10 µM
N#Cc1c(N)sc2c(F)ccc(-c3c(C(F)(F)F)cc4c(N5CC6CCC(C5)N6)nc(OCC5CCS(=O)(=O)CC5)nc4c3F)c12 [Compound 53] | 100 to 1000 nM | 100 to 1000 nM | > 10 µM | > 10 µM | ≤ 100 nM | 1 to 10 µM
N#Cc1c(N)sc2c(F)ccc(-c3c(C(F)(F)F)cc4c(N5CC6CCC(C5)N6)nc(OCC5CC6CCC(C5)O6)nc4c3F)c12 (stereo not drawn) [Compound 52] | 1000 to 10000 nM | 1000 to 10000 nM | > 10 µM | > 10 µM | ≤ 100 nM | > 10 µM
